Source: ChEMBL document CHEMBL5465560, “Selectivity Literature for EUbOPEN Chemogenomic Library” (2024)
Values belong to the compound of their own block, whether it stands above or below them.

Assays:
[1] = target: Platelet-derived growth factor receptor beta (Homo sapiens, UniProt P09619); assay: Selectivity interaction (Kinase panel (Z-LYTE Assay)) EUB0001632a PDGFRB; conditions: at 10 µM
[2] = target: 5-hydroxytryptamine receptor 3A (Homo sapiens, UniProt P46098); assay: Selectivity interaction (Serotonin 5HT3 receptor assay, human recombinant ) EUB0000877a HTR3A
[3] = target: Macrophage colony-stimulating factor 1 receptor (Homo sapiens) (UniProt P07333); assay: Selectivity interaction (KinomeScan (DiscoverX)) EUB0000607a CSF1R; conditions: at 10 µM
[4] = target: Myosin light chain kinase 2, skeletal/cardiac muscle (Homo sapiens) (UniProt Q9H1R3); assay: Selectivity interaction (KinomeScan (DiscoverX)) EUB0000607a MYLK2; conditions: at 10 µM
[5] = target: Serine/threonine-protein kinase MARK2 (Homo sapiens) (UniProt Q7KZI7); assay: Selectivity interaction (ActivX KiNativ screen (kinase selectivity in THP-1 cell lysates)) EUB0000639a MARK2; assay type: subcellular; conditions: lysate, at 5 µM
[6] = target: T1, Cyclin-dependent kinase-like 2 (Homo sapiens) (UniProt Q92772); assay: Selectivity interaction (Ambit KINOMEscan and KiNATiv profiling in Jurkat cells) EUB0000090b CDKL2; assay type: cell-based; conditions: at 1 µM
T1 sequence (whole entry): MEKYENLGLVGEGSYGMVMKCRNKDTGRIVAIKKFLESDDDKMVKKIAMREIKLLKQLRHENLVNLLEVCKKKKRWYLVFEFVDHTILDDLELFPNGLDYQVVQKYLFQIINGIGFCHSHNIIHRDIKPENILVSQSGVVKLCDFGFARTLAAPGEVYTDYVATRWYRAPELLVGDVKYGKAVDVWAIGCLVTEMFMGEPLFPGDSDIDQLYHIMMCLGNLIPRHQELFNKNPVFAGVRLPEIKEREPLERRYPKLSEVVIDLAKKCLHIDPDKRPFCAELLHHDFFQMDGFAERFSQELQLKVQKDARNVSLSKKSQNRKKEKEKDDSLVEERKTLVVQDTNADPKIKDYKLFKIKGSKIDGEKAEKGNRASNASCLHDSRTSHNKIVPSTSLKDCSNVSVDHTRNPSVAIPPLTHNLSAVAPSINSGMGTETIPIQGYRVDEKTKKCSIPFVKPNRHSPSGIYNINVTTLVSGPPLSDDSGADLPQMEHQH

[7] = target: Mitogen-activated protein kinase kinase kinase 1 (Homo sapiens, UniProt Q13233); assay: Selectivity interaction (Ambit KINOMEscan and KiNATiv profiling in Jurkat cells) EUB0000090b MAP3K1; assay type: cell-based; conditions: at 1 µM
[8] = target: T2, Protein kinase C iota type (Homo sapiens) (UniProt P41743); assay: Selectivity interaction (Ambit KINOMEscan and KiNATiv profiling in Jurkat cells) EUB0000090b PRKCI; assay type: cell-based; conditions: at 1 µM
T2 sequence (whole entry): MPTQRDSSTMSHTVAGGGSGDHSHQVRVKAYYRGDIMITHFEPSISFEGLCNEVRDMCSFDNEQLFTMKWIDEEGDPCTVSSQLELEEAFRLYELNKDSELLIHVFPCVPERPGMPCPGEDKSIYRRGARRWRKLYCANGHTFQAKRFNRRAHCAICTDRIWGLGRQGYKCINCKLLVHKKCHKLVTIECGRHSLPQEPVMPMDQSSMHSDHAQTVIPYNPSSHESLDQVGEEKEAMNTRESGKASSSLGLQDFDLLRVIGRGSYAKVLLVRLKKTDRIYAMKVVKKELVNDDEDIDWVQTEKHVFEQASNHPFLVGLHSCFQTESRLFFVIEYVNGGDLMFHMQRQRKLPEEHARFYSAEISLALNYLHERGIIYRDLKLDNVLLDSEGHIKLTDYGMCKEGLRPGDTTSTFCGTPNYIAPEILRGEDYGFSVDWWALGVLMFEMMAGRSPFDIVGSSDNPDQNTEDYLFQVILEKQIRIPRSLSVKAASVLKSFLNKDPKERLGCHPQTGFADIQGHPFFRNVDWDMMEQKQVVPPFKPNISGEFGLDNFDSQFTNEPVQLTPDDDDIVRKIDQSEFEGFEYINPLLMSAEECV

[9] = target: Tyrosine-protein kinase ABL1 (Homo sapiens, UniProt P00519); assay: Selectivity interaction (Kinase panel (Enzyme activity assay)) EUB0000612a ABL1
[10] = target: Serine/threonine-protein kinase RIO2 (Homo sapiens) (UniProt Q9BVS4); assay: Selectivity interaction (KinomeScan (DiscoverX)) EUB0001079a RIOK2; conditions: at 1 µM
[11] = target: ATPase family AAA domain-containing protein 2B (Homo sapiens) (UniProt Q9ULI0); assay: Selectivity interaction (Bromodomain panel (DSF asssay)) EUB0000270b ATAD2B
[12] = target: Serine/threonine-protein kinase 25 (Homo sapiens) (UniProt O00506); assay: Selectivity interaction (KinomeScan (DiscoverX)) EUB0000229b STK25; conditions: at 10 µM
[13] = target: Mitogen-activated protein kinase 10 (Homo sapiens, UniProt P53779); conditions: at 10 µM
[14] = target: Serine/threonine-protein kinase Nek6 (Homo sapiens) (UniProt Q9HC98); conditions: at 10 µM
[15] = target: Phosphatidylinositol 4-phosphate 3-kinase C2 domain-containing subunit beta (Homo sapiens) (UniProt O00750); conditions: at 10 µM
[16] = target: Protein-tyrosine kinase 6 (Homo sapiens, UniProt Q13882); conditions: at 10 µM
[17] = target: Ribosomal protein S6 kinase alpha-6 (Homo sapiens, UniProt Q9UK32); assay: Selectivity interaction (KinomeScan (DiscoverX)) EUB0000618a RPS6KA6; conditions: at 10 µM
[18] = target: T3, Interleukin-1 receptor-associated kinase 4 (Homo sapiens) (UniProt Q9NWZ3); assay: Selectivity interaction (KinomeScan (DiscoverX)) EUB0001619a IRAK4; conditions: at 1 µM
T3 sequence (whole entry): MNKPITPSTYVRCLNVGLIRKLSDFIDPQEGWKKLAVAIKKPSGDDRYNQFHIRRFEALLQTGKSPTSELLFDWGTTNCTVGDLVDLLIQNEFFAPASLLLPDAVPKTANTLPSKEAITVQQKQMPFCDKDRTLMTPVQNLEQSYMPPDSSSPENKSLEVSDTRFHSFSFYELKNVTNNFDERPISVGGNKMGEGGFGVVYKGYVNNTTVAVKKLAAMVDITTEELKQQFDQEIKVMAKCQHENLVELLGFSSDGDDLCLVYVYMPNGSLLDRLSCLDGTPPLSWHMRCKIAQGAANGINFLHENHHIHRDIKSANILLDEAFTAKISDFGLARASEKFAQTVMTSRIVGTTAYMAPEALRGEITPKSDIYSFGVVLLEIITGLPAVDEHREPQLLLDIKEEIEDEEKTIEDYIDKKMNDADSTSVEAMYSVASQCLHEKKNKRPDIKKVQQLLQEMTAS

[19] = target: LIM domain kinase 2 (Homo sapiens) (UniProt P53671); assay: Selectivity interaction (KinomeScan (DiscoverX)) EUB0001619a LIMK2; conditions: at 1 µM
[20] = target: Serine/threonine-protein kinase mTOR (Homo sapiens, UniProt P42345); assay: Selectivity interaction (KinomeScan (DiscoverX)) EUB0001619a MTOR; conditions: at 1 µM

Chain of 5-hydroxytryptamine receptor 3A (P46098 whole entry): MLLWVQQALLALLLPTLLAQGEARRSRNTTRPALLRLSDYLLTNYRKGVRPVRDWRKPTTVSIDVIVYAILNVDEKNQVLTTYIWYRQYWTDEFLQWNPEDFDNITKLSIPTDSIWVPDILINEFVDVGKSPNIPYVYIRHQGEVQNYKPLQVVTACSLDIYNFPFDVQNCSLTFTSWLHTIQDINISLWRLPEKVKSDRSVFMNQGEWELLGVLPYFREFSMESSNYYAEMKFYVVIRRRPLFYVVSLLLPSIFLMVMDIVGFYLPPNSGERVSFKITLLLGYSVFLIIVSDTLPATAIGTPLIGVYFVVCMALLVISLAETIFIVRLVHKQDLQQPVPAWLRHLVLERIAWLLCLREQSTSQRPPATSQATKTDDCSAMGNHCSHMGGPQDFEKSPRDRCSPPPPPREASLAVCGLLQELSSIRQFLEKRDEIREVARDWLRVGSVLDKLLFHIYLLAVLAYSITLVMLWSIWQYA
Chain of Mitogen-activated protein kinase 10 (P53779 whole entry): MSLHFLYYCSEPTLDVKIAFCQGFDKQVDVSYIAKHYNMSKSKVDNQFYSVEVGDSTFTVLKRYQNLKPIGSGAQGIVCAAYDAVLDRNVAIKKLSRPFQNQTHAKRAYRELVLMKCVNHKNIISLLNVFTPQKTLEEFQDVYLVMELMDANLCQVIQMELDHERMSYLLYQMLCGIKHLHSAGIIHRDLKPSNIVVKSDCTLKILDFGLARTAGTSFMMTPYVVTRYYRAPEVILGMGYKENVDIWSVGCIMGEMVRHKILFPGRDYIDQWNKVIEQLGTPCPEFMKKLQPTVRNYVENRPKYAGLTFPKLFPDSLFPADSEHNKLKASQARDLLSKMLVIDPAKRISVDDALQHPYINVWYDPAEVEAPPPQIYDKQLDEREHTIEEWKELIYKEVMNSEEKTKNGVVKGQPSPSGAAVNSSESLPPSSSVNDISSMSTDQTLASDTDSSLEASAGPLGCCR
Chain of LIM domain kinase 2 (Homo sapiens) (P53671 whole entry, looked up, the tested form may be a part): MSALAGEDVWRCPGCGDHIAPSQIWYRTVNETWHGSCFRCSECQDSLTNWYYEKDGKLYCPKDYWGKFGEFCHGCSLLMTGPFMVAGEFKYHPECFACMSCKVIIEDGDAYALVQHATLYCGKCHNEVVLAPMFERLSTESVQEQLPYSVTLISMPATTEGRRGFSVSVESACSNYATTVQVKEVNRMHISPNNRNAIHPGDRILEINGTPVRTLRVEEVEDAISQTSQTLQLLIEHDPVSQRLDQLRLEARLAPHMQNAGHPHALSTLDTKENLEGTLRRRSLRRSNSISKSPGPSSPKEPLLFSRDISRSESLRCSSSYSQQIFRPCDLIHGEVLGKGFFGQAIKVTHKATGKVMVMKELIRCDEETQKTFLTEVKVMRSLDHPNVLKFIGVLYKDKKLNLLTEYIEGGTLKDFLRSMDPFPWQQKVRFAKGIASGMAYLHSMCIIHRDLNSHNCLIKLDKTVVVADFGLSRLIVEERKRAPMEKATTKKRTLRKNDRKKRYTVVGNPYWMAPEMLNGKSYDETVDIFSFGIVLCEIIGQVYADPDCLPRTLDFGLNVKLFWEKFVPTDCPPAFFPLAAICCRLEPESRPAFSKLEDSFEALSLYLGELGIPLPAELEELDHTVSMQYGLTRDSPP
Chain of Serine/threonine-protein kinase MARK2 (Homo sapiens) (Q7KZI7 whole entry): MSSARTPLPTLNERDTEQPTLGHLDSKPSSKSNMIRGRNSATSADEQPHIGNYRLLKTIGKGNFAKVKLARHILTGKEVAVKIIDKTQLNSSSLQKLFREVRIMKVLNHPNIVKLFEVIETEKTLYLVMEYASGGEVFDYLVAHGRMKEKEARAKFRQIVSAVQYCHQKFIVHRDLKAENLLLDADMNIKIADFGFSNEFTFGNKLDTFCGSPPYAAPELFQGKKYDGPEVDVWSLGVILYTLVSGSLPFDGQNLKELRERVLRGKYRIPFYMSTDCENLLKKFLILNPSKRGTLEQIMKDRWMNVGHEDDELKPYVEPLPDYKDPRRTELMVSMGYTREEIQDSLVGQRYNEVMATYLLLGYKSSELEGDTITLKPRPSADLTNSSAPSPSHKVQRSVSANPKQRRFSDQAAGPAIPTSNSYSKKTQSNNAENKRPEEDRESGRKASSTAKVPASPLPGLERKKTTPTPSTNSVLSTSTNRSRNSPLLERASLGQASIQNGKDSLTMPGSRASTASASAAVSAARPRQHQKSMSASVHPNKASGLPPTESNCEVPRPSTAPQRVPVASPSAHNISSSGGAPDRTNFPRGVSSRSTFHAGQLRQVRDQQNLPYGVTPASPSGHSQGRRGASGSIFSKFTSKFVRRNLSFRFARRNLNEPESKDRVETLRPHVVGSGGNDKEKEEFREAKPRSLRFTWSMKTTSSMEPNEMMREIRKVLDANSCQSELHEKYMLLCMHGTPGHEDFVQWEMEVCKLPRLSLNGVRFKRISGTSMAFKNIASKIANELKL
Chain of Serine/threonine-protein kinase RIO2 (Homo sapiens) (Q9BVS4 whole entry, looked up, the tested form may be a part): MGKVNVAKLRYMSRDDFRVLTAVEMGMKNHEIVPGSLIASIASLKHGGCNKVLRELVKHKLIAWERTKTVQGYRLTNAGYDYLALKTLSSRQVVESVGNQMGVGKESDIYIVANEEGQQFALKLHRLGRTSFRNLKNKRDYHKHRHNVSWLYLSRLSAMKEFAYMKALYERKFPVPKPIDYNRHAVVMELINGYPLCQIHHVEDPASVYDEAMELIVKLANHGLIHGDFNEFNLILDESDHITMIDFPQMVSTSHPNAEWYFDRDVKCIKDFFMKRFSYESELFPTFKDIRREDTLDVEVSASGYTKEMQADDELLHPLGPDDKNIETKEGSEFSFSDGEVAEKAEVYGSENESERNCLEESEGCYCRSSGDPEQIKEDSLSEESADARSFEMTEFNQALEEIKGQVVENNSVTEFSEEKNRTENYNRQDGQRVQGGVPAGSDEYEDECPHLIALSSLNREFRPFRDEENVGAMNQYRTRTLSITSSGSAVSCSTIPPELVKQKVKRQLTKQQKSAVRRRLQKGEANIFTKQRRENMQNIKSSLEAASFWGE
Chain of Mitogen-activated protein kinase kinase kinase 1 (Q13233 whole entry): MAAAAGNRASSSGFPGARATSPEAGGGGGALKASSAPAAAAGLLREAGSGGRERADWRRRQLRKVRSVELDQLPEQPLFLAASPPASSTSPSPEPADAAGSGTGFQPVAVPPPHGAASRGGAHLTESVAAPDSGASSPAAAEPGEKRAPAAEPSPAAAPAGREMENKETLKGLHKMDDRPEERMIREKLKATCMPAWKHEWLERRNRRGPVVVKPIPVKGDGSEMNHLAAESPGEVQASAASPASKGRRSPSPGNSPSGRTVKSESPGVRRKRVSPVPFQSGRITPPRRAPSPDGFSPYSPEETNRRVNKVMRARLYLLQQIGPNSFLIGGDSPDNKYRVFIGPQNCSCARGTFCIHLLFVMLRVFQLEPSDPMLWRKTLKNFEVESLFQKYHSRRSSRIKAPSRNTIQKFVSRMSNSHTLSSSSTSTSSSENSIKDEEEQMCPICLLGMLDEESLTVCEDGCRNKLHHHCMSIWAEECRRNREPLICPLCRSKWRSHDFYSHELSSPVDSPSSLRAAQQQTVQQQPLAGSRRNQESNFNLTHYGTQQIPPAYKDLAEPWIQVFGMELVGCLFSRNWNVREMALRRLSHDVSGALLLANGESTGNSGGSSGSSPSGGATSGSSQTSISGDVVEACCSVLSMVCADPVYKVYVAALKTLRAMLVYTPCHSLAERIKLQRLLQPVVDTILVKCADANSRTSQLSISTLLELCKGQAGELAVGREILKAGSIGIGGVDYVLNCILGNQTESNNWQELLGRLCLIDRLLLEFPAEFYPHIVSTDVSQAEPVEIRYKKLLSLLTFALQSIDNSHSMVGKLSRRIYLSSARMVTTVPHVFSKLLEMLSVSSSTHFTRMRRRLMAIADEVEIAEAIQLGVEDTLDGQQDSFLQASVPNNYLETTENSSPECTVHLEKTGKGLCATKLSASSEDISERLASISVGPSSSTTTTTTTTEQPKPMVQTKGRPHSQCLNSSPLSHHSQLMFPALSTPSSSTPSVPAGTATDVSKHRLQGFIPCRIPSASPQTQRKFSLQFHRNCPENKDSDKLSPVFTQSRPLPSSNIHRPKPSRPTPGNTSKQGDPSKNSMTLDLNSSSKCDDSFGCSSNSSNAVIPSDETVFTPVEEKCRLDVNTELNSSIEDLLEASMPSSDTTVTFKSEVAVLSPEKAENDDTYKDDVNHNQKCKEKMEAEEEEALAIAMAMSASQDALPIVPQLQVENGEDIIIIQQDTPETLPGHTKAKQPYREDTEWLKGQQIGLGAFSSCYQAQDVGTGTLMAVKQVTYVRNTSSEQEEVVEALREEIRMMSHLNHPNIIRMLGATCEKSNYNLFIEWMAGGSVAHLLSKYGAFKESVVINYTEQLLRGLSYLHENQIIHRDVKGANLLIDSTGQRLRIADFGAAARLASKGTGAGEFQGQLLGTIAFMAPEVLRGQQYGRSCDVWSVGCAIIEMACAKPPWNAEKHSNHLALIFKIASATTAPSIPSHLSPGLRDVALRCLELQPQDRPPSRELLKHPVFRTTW
Chain of Serine/threonine-protein kinase Nek6 (Homo sapiens) (Q9HC98 whole entry, the tested form may be a part): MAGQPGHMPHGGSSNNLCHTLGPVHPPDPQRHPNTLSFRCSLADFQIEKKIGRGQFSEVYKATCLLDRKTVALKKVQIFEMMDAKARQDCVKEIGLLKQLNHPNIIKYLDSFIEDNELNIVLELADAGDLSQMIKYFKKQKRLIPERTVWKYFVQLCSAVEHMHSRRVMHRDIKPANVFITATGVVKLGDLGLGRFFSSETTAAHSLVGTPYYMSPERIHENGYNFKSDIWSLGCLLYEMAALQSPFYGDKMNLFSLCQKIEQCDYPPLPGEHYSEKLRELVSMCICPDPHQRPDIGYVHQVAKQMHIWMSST

% of control [1]: 12.7%
Structure (SMILES): Cn1cc(-n2cnc3c(NCc4nc5cc(Cl)c(Cl)cc5[nH]4)nc(N4CCOCC4)nc32)cn1

IC50 [2]: > 30 µM
Structure (SMILES): CCC(=O)N1CC[C@H](Nc2ncnc3c2CN(c2cnc(OC)c(C(F)(F)F)c2)CC3)C1 [LENIOLISIB]

Structure (SMILES): CNC(=O)Nc1ccc(-c2nc(N3CC4CCC(C3)O4)c3cnn(C4CCC5(CC4)OCCO5)c3n2)cc1
% of control [3]: 100% | % of control [4]: 100%

% of inhibition [5]: 48.9%
Structure (SMILES): CC[C@@H]1[C@H](F)C(=O)N[C@@H]1COc1nccc2cc(C(N)=O)c(OC)cc12 [ZIMLOVISERTIB]

Structure (SMILES): CN(C)C/C=C/C(=O)Nc1ccc(C(=O)N2CCCC(Nc3ncc(Cl)c(-c4c[nH]c5ccccc45)n3)C2)cc1 (stereo not given)
% of control [6]: 75% | % of control [7]: 82% | % of control [8]: 98%

IC50 [9]: > 10 µM
Structure (SMILES): CCc1cccc(CC)c1NC(=O)c1nn(C)c2c1CCc1cnc(Nc3ccc(C(=O)NC4CCN(C)CC4)cc3OC(F)(F)F)nc1-2

Structure (SMILES): Nc1cnc(N2CCc3cc(S(=O)(=O)Nc4c(F)cc(Cl)cc4F)cc(N4CCCC4=O)c32)nc1 [TP-020n]
% of control [10]: 89%

dTM [11]: -1.47 K
Structure (SMILES): Cc1cc(CN)cc(C)c1-c1ncn(C)c1-c1cncn1C

Structure (SMILES): COc1cc(N(C)c2ccnc3ccc(C(F)(F)F)cc23)cc(OC)c1OC
% binding [12]: 88%

Structure (SMILES): Cc1cc([C@@H](C)Nc2ccccc2C(=O)O)c2nc(N3CCOCC3)cc(=O)n2c1 [AZD-6482]
% of control [13]: 82% | % of control [14]: 100% | % of control [15]: 0.4% | % of control [16]: 75%

Structure (SMILES): O[C@H]1CC[C@H](Nc2ncc3nc(Nc4c(F)cc(F)cc4F)n([C@H]4CCOC4)c3n2)CC1
% of control [17]: 49%

Structure (SMILES): N#Cc1cccc(-c2c[nH]c3ncnc(N4CCOCC4)c23)c1
% of control [18]: 69% | % of control [19]: 96% | % of control [20]: 58%
